The values that follow are results of earlier work, collected in patent US20090162921A1 (priority 2005, published 2009).

The data set concerns mouse. The following applies: in vivo; for LD50: po.

Regarding `C[As+](C)(C)CC(=O)[O-]` [AB, arsenobetaine], the “LD50 (50% of the fatal dose in mouse)” value was 10000 mg/kg and the LD50 is 10000.

Consider arsenic acid [As(V)], for which the “LD50 (50% of the fatal dose in mouse)” value was 14 to 18 mg/kg and the LD50 is 14 to 18 mg/kg.
